Our source for the melting point values is a melting point compilation (Tetko et al.).

In the case of `CC(=O)N[Si](C)(C)C`, the melting point turned out to be 41 °C.
Regarding `Cc1n[nH]c2c(=O)n(C(C)C)c(C)nc12`, the melting point lay in the range of 143 to 145 °C.
Consider `O=C=N[Si](N=C=O)(N=C=O)N=C=O`, for which the melting point stood at 26 °C.
The value for `Cc1ccccc1N1CSc2nnc(-c3ccccc3)n2C1` was 199 °C; that for `O=Cc1ccc(OCc2ccc([N+](=O)[O-])cc2)cc1` was 130 °C.
On to `Nc1ccc2cc(N)ccc2c1`, for which the melting point was found to be 213 °C.
The value for `NC(Cc1ccc(N(CCCl)CCCl)cc1)C(=O)O` (centres undefined) was 182 °C; that for `CCOC(=O)Nc1ccc(NCc2ccc(F)cc2)nc1N` was 114 °C; that for `NS(=O)(=O)c1cc(C(=O)OCOC(=O)c2ccccc2)c(NCc2ccco2)cc1Cl` was 179 °C.
The value for `CCCCCCCCC(=O)OCCCCC` was -27 °C; that for `CC(C)C(C)C(O)C(O)C(C)C1CCC2C3COC(=O)C4CC(O)C(O)CC4(C)C3CCC12C` (centres undefined) was 255 °C; that for `CCC1CCC(C)C1` (centres undefined) was -108 °C.
In the case of `O=C1OCCOC(=O)c2ccccc2C(=O)OCCOC(=O)c2ccccc21`, the melting point came out at 192 °C.
The value for `COC(=O)[C@H]1C[C@H](NC(=O)OC(C)(C)C)[C@@H](O)C1` was 71.2 °C.
In turn, `NNC(=O)c1ccc(O)cc1O` came in with a melting point of 241 °C.
For `CC(=O)CC(=O)C(=O)O`, the melting point came to 99.5 °C.
`O=c1c(Cl)c(SCc2ccccc2)cnn1-c1ccccc1` registered a melting point of 138 to 140 °C.
Next, `O=C(O)CCC(=O)c1ccc2c(c1)-c1cccc3cccc-2c13`: 208 °C; `CS(=O)(=O)Oc1ccccc1`: 62 to 63 °C.
`CCOC(=O)c1ccc(NC)c(N)c1` came in with a melting point of 87 to 88 °C.
The value for `CC=CCCl` was -65 °C.
The value for `O=C1c2ccccc2C(=O)N1c1cn[nH]c1` was 259 to 260 °C; that for `CCOC(=O)C(C)(C)N1CCN(c2ccc(Cl)cc2)CC1` was 56 °C.
The value for `Cc1nc(-c2ccccn2)nc(Cl)c1Cl` was 127 to 129 °C; that for `COC(=O)C1(C(=O)OC)Cc2ccc(C)cc2C(=O)O1` was 120 to 121 °C; that for `CC(C(=O)O)c1ccc(C2CCCC(=NO)C2)cc1` (centres undefined) was 178 °C.
Turning to `COc1ncccc1N`, the melting point lay within 67 to 68 °C.
The value for `CC1(NC(=O)c2ccccc2)COCOC1=O` (racemic) was 154 to 159 °C; that for `Cc1oc(-c2ccc(Cl)cc2)cc1C(=O)Cl` was 122 to 124 °C.
The value for `CCOC(=O)Oc1c(OC)cc(C(=O)O)cc1OC` was 180 to 185 °C.
`CC(=O)NCCc1ccccc1NC(C)=O` returned a melting point of 144 °C.
The value for `O=C(O)c1cccc(S(=O)(=O)Nc2ccccc2)c1` was 236 °C; that for `CCCCCCCCCCCCCCCCCC(=O)Oc1ccccc1` was 52 °C; that for `C=C1CCC(=O)O1` was 18 °C.
As for `COc1cc(CCl)c(OC)cc1CCl`, the melting point was in the range of 164 to 165 °C.
The value for `COC(=O)c1cc2ccsc2[nH]1` was 127 to 129 °C; that for `O=C1[C@H]2CC[C@@H]1[C@H]1C=C[C@@H]2O1` was 97 °C; that for `COc1ccc([N+](=O)[O-])cc1Cl` was 94 to 96 °C.
Next, `Nc1ncccc1C=O`: 101 °C; `CCO[Si](Cl)(Cl)OCC`: -130 °C.
`Cc1cc(C2(c3ccc(O)c(C)c3)CCCCC2)ccc1O` showed a melting point of 184 to 185 °C.
The value for `CC(C)COc1ccc2ccccc2c1` was 31 °C; that for `COc1cc(C(=O)c2cccc(Br)c2)c([N+](=O)[O-])cc1OC` was 119 °C.
Next, `COC(=O)C1Cc2c3c(c4c(c2CC1C(=O)OC)CC(C(=O)OC)C(C(=O)OC)C4)CC(C(=O)OC)C(C(=O)OC)C3` (centres undefined): 261 to 263 °C.

Usually melting point stands for the temperature of the solid-liquid transition.
